This note sets out measurements from article PMC11681865, “Oligomerization of protein arginine methyltransferase 1 and its functional impact on substrate arginine methylation” (The Journal of Biological Chemistry, 2024).

Entries after “also recorded” stand apart in the source; their conditions may differ.

Series [1] concerns the target T1, PRMT1 (Homo sapiens, UniProt Q99873).
T1 construct: human PRMT1 protein (amino acid residue 11–353); His6; made in house
Nature of the series: Dynamic light scattering of PRMT1 oligomers. In kind it is physicochemical. The following applies: pH 8, 25 °C; for disruption of PRMT1 oligomers by denaturant: 6 M guanidine hydrochloride or 5 M guanidine thiocyanate. The text has this: Dynamic light scattering (DLS) uses a laser to measure the particle size distribution ([26]). The DLS can give information regarding the heterogeneity of protein in a sample ([27]). In the past, DLS was used to study microbial and viral structure ([28]). Nowadays, DLS is a popular method for studying nanoparticles, liposomes, and exosomes ([29], [30], [31], [32]). Researchers have also used DLS to study the protein folding of bovine serum albumin ([33]). Therefore, we envisage that the DLS can be utilized to analyze the size changes of PRMT1 oligomeric compositions in an aqueous solution. We expect to see an increase in size with increasing protein concentrations. The prepared PRMT1 protein at varied concentrations was allowed to incubate in the aqueous buffer for equilibrium on ice for 10 min. The protein solution was filtered with 0.2-micron filter to remove any big interfering particles. The protein size was analyzed using a Malvern Zetasizer instrument. We took an average of three runs with about 25 scans each time to evaluate the data. […] Guanidine hydrochloride is a popular protein denaturant ([34]). […] As a negative control, we incubated PRMT1 in the presence of 6 M guanidine hydrochloride to disrupt oligomer formation. […] A literature reported that guanidine thiocyanate is a stronger denaturant than guanidine hydrochloride ([35]).
Figure 2 Oligomerization of PRMT1 detection by dynamic light scattering. Various concentrations of PRMT1 were incubated on ice for 10 min, then filtered by 0.2-micron syringe filter and collected data from the DLS. The top line with black circle indicates PRMT1 without denaturant. The open triangle and hexagon lines indicated PRMT1 oligomeric structure disrupted by 6 M guanidine hydrochloride and 5 M guanidine thiocyanate, respectively.
Indicated concentrations of PRMT1 were incubated for 10 min on ice with buffer (50 mM Hepes pH 8, 10 mM NaCl, 0.5 mM EDTA, 0.5 mM DTT) and filtered through the 0.22 μm syringe filter. For the experiment to disrupt the oligomer formation, 6 M of guanidine hydrochloride or 5 M of guanidine thiocyanate was added to the reaction. The samples were injected into the 1 ml disposable cuvette and measured by Zetasizer Nano ZS (Malvern Instruments) at 25 °C. Three measurements of 25 scans each were collected to average. The data was analyzed by the Malvern Zetasizer software v7.10.

Series [2] deals with T1, PRMT1. Nature of the series: Stopped-flow fluorescence dissociation of H4FL from PRMT1. The series is classed as binding. To be noted: for koff: 1:25 dilution, pH 8.0, ex 498 / em 524, at least three shots averaged, single exponential. The text has this: We next utilized the stopped-flow technique to measure the dissociation rates of peptide substrate from PRMT1 at different PRMT1 concentrations. We used a rapid dilution experiment with stopped flow fluorescence to measure the dissociation rate of H4 peptide from PRMT1. […] We reasoned that the changes of fluorescence intensity can be used to measure dissociation rate of H4 substrate. In the experiment, the H4FL was premixed with PRMT1 and loaded into the sample chamber of the stopped flow equipment. The mixture was rapidly mixed with an access buffer which initiated the dissociation of H4FL from PRMT1 on the millisecond scale. […] The averaged data curves were fitted to the single exponential equation to yield dissociation rate constant koff. The koff was 42.27 s^−1 at 0.5 μM of PRMT1, the koff was 22.29 s^−1at 1.5 μM of PRMT1, and the koff was 17.65 s^−1 at 5 μM of PRMT1 (Fig. 9D).
Figure 9 Oligomerization helps PRMT1 retain its substrate. The experiment was carried out by the SX20 stopped-flow spectrometers with (A) 0.5 μM, (B) 1.5 μM, and (C) 5 μM of PRMT1. The PRMT1 was premixed with 0.8 μM H4FL peptide. The mixture was diluted with the reaction buffer for a 1:25 dilution when the reaction was run. D, data summary of koff. TEXT PRINTED IN THE PICTURE: (D) no label printed: koff: 42.27 s^-1 (Concentration of PRMT1: 0.5 μM); koff: 22.29 s^-1 (Concentration of PRMT1: 1.5 μM); koff: 17.65 s^-1 (Concentration of PRMT1: 5 μM)
The trapping experiment to measure the dissociation rate of PRMT1 was carried out using the SX20 stopped-flow spectrometers (Applied Photophysics). The setting for excitation was 498 and emission was 524. A constant concentration of 0.8 μM of H4FL peptide (Peptide Sequence: Ac-[…]pr(FL)[…], in which FL stands for fluorescein) was pre-mix with 0.5 μM, 1.5 μM, and 5.0 μM of PRMT1. The mixture was loaded on the 100 μl drive syringe. Another 2.5 ml drive syringe was loaded with reaction buffer (50 mM Hepes pH 8.0, 10 mM NaCl, 0.5 mM EDTA, and 0.5 mM DTT) to create the 1:25 dilution factor. At least three shots were averaged for each reaction and fitted to the single exponential function. F is the fluorescence intensity, t is time, A is the amplitude of fluorescence, k is the dissociation rate constant, and C is the final value of fluorescence.(2) F=Aexp(−kt)+C

The target in series [3] is T2, PRMT1-WT (Homo sapiens, UniProt Q99873).
T2 construct: His-MBP (N, cleaved yes); made in house; host or cells: Escherichia coli BL21 (DE3) RIPL
T2 sequence (Q99873 11-353 isoform Q99873-3): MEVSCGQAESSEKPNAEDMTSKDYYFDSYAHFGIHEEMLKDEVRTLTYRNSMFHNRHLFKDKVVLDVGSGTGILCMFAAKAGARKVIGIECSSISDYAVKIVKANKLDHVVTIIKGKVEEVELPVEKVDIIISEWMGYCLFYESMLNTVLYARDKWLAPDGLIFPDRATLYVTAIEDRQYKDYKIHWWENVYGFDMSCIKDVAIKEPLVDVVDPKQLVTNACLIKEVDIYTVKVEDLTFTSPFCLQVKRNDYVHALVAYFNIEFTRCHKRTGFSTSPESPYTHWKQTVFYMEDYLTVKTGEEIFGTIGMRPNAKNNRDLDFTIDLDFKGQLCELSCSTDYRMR
The series is described as follows: Steady-state kinetics, radiometric filter-binding assay, PRMT1-WT. The series is classed as biochemical. The text has this:
To gain further insights into the effect of oligomerization on the PRMT1 activity, we measured the steady-state kinetic parameters of different peptide substrates under PRMT1 catalysis using the radiometric assay. […] A constant concentration of PRMT1-WT was mixed with various concentrations of peptide and a constant concentration of radioactive SAM. After quenching the reaction, the reaction mixture was loaded onto the P81 filter paper that was washed, air-dried, and soaked in scintillation cocktail for scintillation counting. The rates of methylation as a function of the peptide concentration were plotted in Figure 8A and fit with the Hill equation to obtain catalytic parameters kcat and K0.5 (Fig. 8B).
Figure 8 Steady state kinetic characterization of PRMT1 catalysis in oligomeric states. Radioactive kinetic parameters were measured using filter-binding assay. […] The reaction time was 15 min at 30 °C and quenched with 100% isopropanol. For the reaction with PRMT1-E153Q, 0.05 μM PRMT1-E153Q was incubated on ice with PRMT1 for 20 min equilibration before adding SAM and peptide. A, kinetic parameters of oligomeric states in graphical form. B, representation of the kinetic parameters in kcat, K0.5, and kcat/K0.5.
Each reaction sample was consisted of 0.05 μM PRMT1, 15 μM ^14C-SAM, and various concentrations of peptide. […]

In series [4] the target is T2, PRMT1-WT. The series is described as follows: Radiometric P81 filter-binding assay, PRMT1-WT concentration dependence. In kind it is biochemical. To be noted: 50 μM peptide, 2 μM [3H]-SAM and 48 μM SAM, 30 min, room temperature, pH 8.0.
Excerpt: We used the phosphocellulose P81 filter paper–binding assay to measure the catalytic activity of PRMT1 at different concentrations on individual peptides. Each reaction mixture was composed of PRMT1-WT at varied concentrations, at fixed concentrations of SAM and peptide. The reaction mixture was quenched with isopropanol, transferred to the P81 filter paper, and washed with sodium bicarbonate buffer (pH 9). […] The measured count-per-minute (CPM) values correlated directly with the amounts of methylated peptide products. In a typical enzymatic catalysis, the product should be formed linearly as a function of enzyme concentration.
Various concentrations of PRMT1-WT were incubated with radioactive 2 μM [3H]-SAM and 48 μM SAM and 50 μM of indicated peptides for 30 min. The reaction was quenched with 100% isopropanol.
The reaction buffer consisted of 50 mM Hepes pH 8.0, 10 mM NaCl, 0.5 mM EDTA, and 0.5 mM DTT. The reaction was incubated at room temperature for 30 min after being initiated with ^3H-SAM SAM. An equal amount of 100% isopropanol to the total reaction volume was used to quench the reaction. The reaction liquid was transferred onto the phosphocellulose P81 filter paper (1.1 cm × 2 cm, Protein Chemistry & Metabolism Unit at St Vincent's Institute of Medical Research). The P81 filter papers containing the samples were left at room temperature for 30 min to airdry. […]
The target in series [5] is Human PRMT1 (11-353), His-MBP tag removed (human).

T1 sequence (Q99873 11-353 isoform Q99873-3): as above

In the case of `Cl.N=C(N)N` [guanidine hydrochloride], the “disruption of PRMT1 oligomers by denaturant” value on PRMT1 [1] was “substantially smaller than those values without guanidine hydrochloride”. The “highest Z-average of PRMT1 in presence of denaturant” value at PRMT1 [1] (6 M guanidine hydrochloride, average of three runs of 25 scans) is 8.43 nm.
For `N#CS.N=C(N)N` [guanidine thiocyanate], the “Z-average of PRMT1 in presence of denaturant” value at PRMT1 [1] (5 M guanidine thiocyanate, average of three runs of 25 scans) is recorded as 1.27 nm. Also, the “disruption of PRMT1 oligomers by denaturant” value on PRMT1 [1] is on record as “better at denaturing PRMT1 oligomers than guanine hydrochloride”.
With “Ac-SGRGKGGKGDpr(FL)GKGGAKRHRK [H4FL, fluorescently labeled H4 peptide]”, the dissociation rate constant (koff) on PRMT1 [2] (0.5 μM PRMT1, 0.8 μM H4FL) was 42.27 s⁻¹; on PRMT1 [2] (1.5 μM PRMT1, 0.8 μM H4FL), 22.29 s⁻¹; at PRMT1 [2] (5 μM PRMT1, 0.8 μM H4FL), 17.65 s⁻¹. At PRMT1 [2] (0.5, 1.5 and 5 μM PRMT1), the “koff vs PRMT1 concentration / oligomeric state” value is “the koff decreased as PRMT1 concentration increased; also recorded: smaller at higher oligomeric states”.
Consider Ac-SGRGKGGKGLGKGGAK [Ac-H4(1–16)], for which the “K0.5 / binding comparison of Ac-H4(1–16) and longer H4 peptide” value on PRMT1-WT [3] is reported as “greater than Ac-H4(1–22); also recorded: weaker PRMT1 binding”. Also, the “kcat, fold lower than Ac-H4(1–22)” value on PRMT1-WT [3] (Ac-H4(1–16) vs Ac-H4(1–22)) amounted to 1.3 fold.
“Ac-SGRmeGKGGKGLGKGGAKRHRK [Ac-H4(1–20)R3me]”: the “PRMT1 enzymatic activity (CPM) vs PRMT1 concentration” value on PRMT1-WT [4] is “increase as higher-order oligomeric structures were formed”.
In series [5], “PRMT1-E153Q, catalytically inactive mutant (enzyme)” displayed a dimethylated R4me2 (MALDI-MS, percent relative to R4 peptide), 0.5 μM PRMT1-WT with 0 to 2 μM PRMT1-E153Q of 5.85% and a monomethylated product R4me1 (MALDI-MS, percent relative to R4 peptide), 0.5 μM PRMT1-WT with 0 to 2 μM PRMT1-E153Q of 20.2%.

One may read the koff as a measure of how fast the partners let go of each other. Read a low koff as a long-lived complex.
